The record followed here is ChEMBL document CHEMBL4265889, “Design and synthesis of tetrahydropyridopyrimidine based Toll-Like Receptor (TLR) 7/8 dual agonists” (Bioorg Med Chem Lett, 2018).

Structures are written as SMILES.

Data set [1] is filed under the species Homo sapiens. Briefly: Binding affinity to histamine receptor (unknown origin).
Data set [2] in a line: AUC (0 to last) in C57BL/6 mouse plasma at 5 mg/kg, po. The format is ADME, organism-based. More on the design: dose 5 mg/kg, route oral, time 0 - last.
Data set [3] deals with Dopamine receptor (Homo sapiens) (UniProt P14416+P35462+P21918+P21917+P21728). Briefly: Binding affinity to dopamine receptor (unknown origin). In kind it is protein assay.
A short description of data set [4]: Cmax in C57BL/6 mouse plasma at 5 mg/kg, po. In kind it is ADME, organism-based. More on the design: dose 5 mg/kg, route oral.
The nature of data set [5]: Drug metabolism in human liver microsomes at 1 uM after 15 mins. In kind it is ADME, microsome. Conditions: read-out: Drug metabolism.
Data set [6] relates to Mus musculus. The data set can be described thus: Induction of innate immune response in C57BL/6 mouse assessed as IP-10 Tmax at 5 mg/kg, po. The format is functional, organism-based.
Data set [7] can be described thus: Drug metabolism in mouse liver microsomes at 1 uM after 15 mins. Conditions: read-out: Drug metabolism. The format is ADME, microsome.
Data set [8] addresses Voltage-gated inwardly rectifying potassium channel KCNH2 (Homo sapiens, UniProt Q12809). Briefly: Displacement of 3H-dofetilide from human ERG.
For a further data set, the target named is Cytochrome P450 2C9 (Homo sapiens, UniProt P11712). Briefly: Inhibition of CYP2C9 (unknown origin). The format is ADME.
Chain of Cytochrome P450 2C9 (P11712 whole entry): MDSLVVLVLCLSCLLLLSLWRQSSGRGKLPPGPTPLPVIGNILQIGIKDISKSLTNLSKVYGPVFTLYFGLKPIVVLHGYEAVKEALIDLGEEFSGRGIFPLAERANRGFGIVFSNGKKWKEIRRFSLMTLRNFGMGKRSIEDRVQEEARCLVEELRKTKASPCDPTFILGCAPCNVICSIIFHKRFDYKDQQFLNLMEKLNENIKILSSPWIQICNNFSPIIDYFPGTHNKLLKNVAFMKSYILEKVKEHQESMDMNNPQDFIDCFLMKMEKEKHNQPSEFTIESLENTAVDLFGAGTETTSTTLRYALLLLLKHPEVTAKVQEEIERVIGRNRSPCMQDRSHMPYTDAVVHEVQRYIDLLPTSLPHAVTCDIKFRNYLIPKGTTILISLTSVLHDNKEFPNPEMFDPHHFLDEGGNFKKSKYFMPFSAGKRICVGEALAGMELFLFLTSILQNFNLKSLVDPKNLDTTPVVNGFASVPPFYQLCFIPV
For a further data set, the target named is Cytochrome P450 3A4 (Homo sapiens, UniProt P08684). Briefly: Inhibition of CYP3A4 (unknown origin). The format is ADME.
Chain of Cytochrome P450 3A4 (P08684 whole entry): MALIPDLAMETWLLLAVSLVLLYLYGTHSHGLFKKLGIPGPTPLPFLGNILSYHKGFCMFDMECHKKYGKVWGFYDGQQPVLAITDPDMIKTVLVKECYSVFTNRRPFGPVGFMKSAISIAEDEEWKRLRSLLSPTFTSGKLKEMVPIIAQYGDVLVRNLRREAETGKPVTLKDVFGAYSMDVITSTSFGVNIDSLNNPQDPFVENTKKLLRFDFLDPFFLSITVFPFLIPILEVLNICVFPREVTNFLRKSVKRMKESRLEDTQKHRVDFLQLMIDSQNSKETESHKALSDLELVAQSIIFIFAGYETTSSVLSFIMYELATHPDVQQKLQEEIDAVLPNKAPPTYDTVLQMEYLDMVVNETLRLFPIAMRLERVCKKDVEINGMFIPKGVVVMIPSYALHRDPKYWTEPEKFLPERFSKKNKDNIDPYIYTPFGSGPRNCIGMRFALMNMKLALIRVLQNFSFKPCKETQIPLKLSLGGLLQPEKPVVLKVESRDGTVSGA
For data set [9], the species on record is Homo sapiens. Briefly: Binding affinity to serotonin receptor (unknown origin).
The target in the next data set is Cytochrome P450 2D6 (Homo sapiens, UniProt P10635). The data set can be described thus: Inhibition of CYP2D6 (unknown origin). In kind it is ADME.
Chain of Cytochrome P450 2D6 (P10635 whole entry): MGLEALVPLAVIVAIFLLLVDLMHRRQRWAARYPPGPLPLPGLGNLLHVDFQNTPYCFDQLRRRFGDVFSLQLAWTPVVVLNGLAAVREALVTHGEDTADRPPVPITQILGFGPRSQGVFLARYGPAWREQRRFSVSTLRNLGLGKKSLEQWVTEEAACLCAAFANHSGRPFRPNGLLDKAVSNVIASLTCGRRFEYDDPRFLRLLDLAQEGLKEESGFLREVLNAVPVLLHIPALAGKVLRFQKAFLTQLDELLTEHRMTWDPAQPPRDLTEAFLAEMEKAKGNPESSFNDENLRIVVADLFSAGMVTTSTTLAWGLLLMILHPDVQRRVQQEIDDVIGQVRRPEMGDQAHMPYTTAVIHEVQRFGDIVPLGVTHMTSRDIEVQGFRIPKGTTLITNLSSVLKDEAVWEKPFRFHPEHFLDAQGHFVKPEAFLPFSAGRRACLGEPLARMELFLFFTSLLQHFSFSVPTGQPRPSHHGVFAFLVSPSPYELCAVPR
The next data set deals with T1, Cytochrome P450 2C8 (Homo sapiens, UniProt P10632).
T1 sequence (P10632 whole entry): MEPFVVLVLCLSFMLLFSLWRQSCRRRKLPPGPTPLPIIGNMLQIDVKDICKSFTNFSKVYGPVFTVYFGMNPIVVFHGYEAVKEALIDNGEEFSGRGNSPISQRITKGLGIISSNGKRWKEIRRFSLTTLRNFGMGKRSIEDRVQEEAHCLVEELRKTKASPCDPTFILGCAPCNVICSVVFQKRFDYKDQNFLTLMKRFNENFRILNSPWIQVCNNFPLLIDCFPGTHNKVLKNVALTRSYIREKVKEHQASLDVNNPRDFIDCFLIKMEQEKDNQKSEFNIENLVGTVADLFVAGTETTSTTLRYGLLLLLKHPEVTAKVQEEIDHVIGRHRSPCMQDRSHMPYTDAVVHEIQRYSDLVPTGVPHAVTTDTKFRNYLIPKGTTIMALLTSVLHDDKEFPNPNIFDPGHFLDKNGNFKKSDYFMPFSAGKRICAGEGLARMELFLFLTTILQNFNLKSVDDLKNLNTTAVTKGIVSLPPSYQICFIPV
The data set can be described thus: Inhibition of CYP2C8 (unknown origin). The format is ADME.

For data set [10], the system named is Mus musculus. Briefly: Induction of innate immune response in C57BL/6 mouse assessed as IP-10 Cmax in liver at 5 mg/kg, po. In kind it is functional, organism-based. More on the design: dose 5 mg/kg.
The target in data set [11] is T2, Toll-like receptor 7 (Homo sapiens) (UniProt Q9NYK1).
T2 sequence (whole entry): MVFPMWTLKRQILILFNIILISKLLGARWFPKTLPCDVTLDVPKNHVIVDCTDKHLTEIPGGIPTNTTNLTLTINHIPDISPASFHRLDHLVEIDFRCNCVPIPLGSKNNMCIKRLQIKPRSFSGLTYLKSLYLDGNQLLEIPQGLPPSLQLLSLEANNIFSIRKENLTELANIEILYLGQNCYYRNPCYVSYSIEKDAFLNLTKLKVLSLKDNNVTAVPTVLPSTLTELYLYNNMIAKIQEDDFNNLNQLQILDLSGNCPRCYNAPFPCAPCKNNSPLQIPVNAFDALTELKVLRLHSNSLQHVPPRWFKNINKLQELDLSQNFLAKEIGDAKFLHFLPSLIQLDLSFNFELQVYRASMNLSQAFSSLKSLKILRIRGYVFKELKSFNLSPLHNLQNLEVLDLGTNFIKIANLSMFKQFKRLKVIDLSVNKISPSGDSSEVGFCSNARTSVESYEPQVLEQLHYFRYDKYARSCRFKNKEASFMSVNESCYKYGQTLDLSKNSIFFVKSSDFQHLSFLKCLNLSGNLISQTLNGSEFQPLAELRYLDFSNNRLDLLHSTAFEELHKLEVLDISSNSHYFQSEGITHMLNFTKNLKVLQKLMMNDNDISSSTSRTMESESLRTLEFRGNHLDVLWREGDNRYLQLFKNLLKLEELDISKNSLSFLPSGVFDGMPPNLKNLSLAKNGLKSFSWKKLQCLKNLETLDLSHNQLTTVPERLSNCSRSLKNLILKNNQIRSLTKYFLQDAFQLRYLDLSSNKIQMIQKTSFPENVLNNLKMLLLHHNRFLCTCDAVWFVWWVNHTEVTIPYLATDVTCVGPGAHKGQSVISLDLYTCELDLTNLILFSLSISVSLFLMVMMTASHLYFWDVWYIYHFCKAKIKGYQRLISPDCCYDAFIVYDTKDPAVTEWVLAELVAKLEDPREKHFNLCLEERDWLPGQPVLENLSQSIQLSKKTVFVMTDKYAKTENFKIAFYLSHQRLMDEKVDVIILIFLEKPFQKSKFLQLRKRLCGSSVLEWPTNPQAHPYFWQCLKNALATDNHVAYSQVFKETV
The data set can be described thus: Agonist activity at human TLR7 expressed in HEK293 cells after 6 hrs by NFkappaB-luciferase reporter gene assay. The format is cell-based.

Data set [12] is described as follows: Protein binding in mouse plasma. In kind it is ADME, cell-free. As to conditions: read-out: PPB (converted).
Data set [13] can be described thus: Cmax in C57BL/6 mouse liver at 5 mg/kg, po. The format is ADME, organism-based. More on the design: dose 5 mg/kg, route oral.
The target in a further data set is Cytochrome P450 2C19 (Homo sapiens, UniProt P33261). Briefly: Inhibition of CYP2C19 (unknown origin). In kind it is ADME.
Chain of Cytochrome P450 2C19 (P33261 whole entry): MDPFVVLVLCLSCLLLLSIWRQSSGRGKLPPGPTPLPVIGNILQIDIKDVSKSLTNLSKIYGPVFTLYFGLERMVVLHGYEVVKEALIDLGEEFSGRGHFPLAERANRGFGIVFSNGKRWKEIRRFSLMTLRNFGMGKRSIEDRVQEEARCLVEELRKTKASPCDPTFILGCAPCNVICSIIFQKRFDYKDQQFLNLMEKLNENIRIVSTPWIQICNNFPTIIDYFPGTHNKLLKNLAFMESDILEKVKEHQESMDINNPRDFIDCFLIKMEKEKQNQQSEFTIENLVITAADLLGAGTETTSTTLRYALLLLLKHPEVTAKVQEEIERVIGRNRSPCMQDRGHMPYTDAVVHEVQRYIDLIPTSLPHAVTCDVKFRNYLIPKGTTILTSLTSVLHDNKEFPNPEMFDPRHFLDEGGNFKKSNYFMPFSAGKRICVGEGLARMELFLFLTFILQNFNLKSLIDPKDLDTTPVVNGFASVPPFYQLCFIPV
The test system of data set [14] is Mus musculus. Briefly: Induction of innate immune response in C57BL/6 mouse assessed as IFNalpha Cmax in liver at 5 mg/kg, po. More on the design: dose 5 mg/kg. In kind it is functional, organism-based.

Chain of Voltage-gated inwardly rectifying potassium channel KCNH2 (Q12809 whole entry): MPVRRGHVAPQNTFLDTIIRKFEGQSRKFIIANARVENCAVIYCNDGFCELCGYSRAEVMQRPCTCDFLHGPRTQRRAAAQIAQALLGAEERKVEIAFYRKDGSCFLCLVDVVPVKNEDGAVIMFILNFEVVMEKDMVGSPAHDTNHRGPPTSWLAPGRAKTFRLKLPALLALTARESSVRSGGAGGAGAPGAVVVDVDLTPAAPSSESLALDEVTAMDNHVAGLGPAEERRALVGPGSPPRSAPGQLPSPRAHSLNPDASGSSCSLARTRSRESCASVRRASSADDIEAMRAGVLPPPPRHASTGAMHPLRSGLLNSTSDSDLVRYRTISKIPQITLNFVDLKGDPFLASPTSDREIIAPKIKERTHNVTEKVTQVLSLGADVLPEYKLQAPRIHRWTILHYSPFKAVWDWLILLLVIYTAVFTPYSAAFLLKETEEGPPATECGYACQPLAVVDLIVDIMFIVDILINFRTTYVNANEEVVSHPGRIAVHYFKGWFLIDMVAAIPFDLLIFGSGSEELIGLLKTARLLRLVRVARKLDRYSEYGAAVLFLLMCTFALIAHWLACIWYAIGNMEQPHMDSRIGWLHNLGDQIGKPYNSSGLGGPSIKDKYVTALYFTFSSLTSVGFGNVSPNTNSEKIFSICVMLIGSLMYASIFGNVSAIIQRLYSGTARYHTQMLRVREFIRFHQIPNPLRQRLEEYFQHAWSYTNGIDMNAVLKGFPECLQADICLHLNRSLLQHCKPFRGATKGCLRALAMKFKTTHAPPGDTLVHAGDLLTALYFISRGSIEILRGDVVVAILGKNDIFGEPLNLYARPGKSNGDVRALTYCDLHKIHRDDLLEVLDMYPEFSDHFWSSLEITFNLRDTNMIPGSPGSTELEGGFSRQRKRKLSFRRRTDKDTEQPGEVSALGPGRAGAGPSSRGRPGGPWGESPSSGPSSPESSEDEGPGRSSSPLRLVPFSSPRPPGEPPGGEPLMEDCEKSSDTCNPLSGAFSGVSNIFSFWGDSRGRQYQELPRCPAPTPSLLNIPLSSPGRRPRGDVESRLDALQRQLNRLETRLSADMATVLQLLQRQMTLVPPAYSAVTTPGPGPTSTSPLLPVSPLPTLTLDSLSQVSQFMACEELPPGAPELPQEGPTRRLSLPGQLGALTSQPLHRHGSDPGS

Regarding `CCC[C@@H](CCO)Nc1nc(N)nc2c1CN(C(=O)c1csc(C)n1)CC2`, the Activity (in the data set filed under Homo sapiens [1]; in data set [3]; in the data set filed under Homo sapiens [9]) was above 10 µM throughout. In [2], this compound had an exposure AUC(0-t) of 70 ng·h/mL. In addition, the Cmax in data set [4] was found to be 29 ng/mL; in the data set with Mus musculus [10] it was 75 pg/g; in [13] it was 711 ng/g; in the data set with Mus musculus [14], 0 pg/g. Also, the metabolised at 0.25 h, 1 µM was 21% in data set [5] and 33% in data set [7]. The Tmax with Mus musculus [6] came out at 4 h. For the same compound, the IC50 was 22 µM in data set [8]; above 10 µM against Cytochrome P450 2C9; above 10 µM against Cytochrome P450 3A4; above 10 µM on Cytochrome P450 2D6; above 10 µM against Cytochrome P450 2C8; above 10 µM on Cytochrome P450 2C19. Moreover, the MEC in data set [11] turned out to be 1.5 µM. Besides, the fraction unbound in [12] was 0.7.
